Data: US9936701B2, “Herbicidal compounds” (Syngenta Participations AG, priority 2013, dated 2018)

Tests used:
[1] = test system: a variety of test species; assay: Post-emergence herbicidal activity (glasshouse, sprayed after 8 days cultivation, evaluated after 13 days); type: in vivo; design: key: 5=total damage to plant; 0=no damage to plant; conditions: rate 1000 g/Ha, scale 0-5
Procedure, shortened: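 Damage was rated 0-5 (5 = total) 13 days after a post-emergence spray of acetone/water (50:50) plus 0.5% Tween 20 formulation. Plants were sprayed at 8 days' growth and kept at 24/16° C, 14 h light, 65% humidity, watered twice daily.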

[2] = test system: a variety of test species; assay: Pre-emergence herbicidal activity (glasshouse, sprayed one day after sowing, evaluated after 13 days); type: in vivo; design: key: 5=total damage to plant; 0=no damage to plant; conditions: application pre-emergence, rate 1000 g/Ha, scale 0-5
Procedure, shortened: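 Visual 0–5 injury score (5 = total damage) taken 13 days after spraying. Treatment applied one day after sowing, before emergence; glasshouse at 24/16 °C day/night, 14 h photoperiod, 65% humidity.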

SMILES	melting point [°C]	ABUTH (Abutilon theophrasti) damage score, application post-emergence [1]	ALOMY (Alopecurus myosuroides) damage score, application post-emergence [1]	AMARE (Amaranthus retroflexus) damage score, application post-emergence [1]	ECHCG (Echinochloa crus-galli) damage score, application post-emergence [1]	SETFA (Setaria faberi) damage score, application post-emergence [1]	ZEAMX (Zea mays) damage score, application post-emergence [1]	Pre-emergence herbicidal damage score, ABUTH [2]	Pre-emergence herbicidal damage score, ALOMY [2]	Pre-emergence herbicidal damage score, AMARE [2]	Pre-emergence herbicidal damage score, ECHCG [2]	Pre-emergence herbicidal damage score, SETFA [2]	Pre-emergence herbicidal damage score, ZEAMX [2]
CC1=C(Cl)C(=O)N(c2cc(C(C)(C)C#N)on2)C1 [A104]	141 to 143	5	5	5	5	5	5	5	4	5	5	5	2
COC1=C(Br)C(=O)N(c2cc(C(C)(C)C)on2)C1O (stereo not shown) [B2]	140 to 160	5	4	5	5	4	5	5	4	5	5	4	1
C=CCNC1=C(Cl)C(=O)N(c2cc(C(C)(C)C)on2)C1O (stereo not shown) [C7]	163 to 164	5	4	5	5	5	3	5	3	5	5	3	2

Second part, led by results:

melting point [°C]	SMILES	ABUTH (Abutilon theophrasti) damage score, application post-emergence [1]	ALOMY (Alopecurus myosuroides) damage score, application post-emergence [1]	AMARE (Amaranthus retroflexus) damage score, application post-emergence [1]	ECHCG (Echinochloa crus-galli) damage score, application post-emergence [1]	SETFA (Setaria faberi) damage score, application post-emergence [1]	ZEAMX (Zea mays) damage score, application post-emergence [1]	Pre-emergence herbicidal damage score, ABUTH [2]	Pre-emergence herbicidal damage score, ALOMY [2]	Pre-emergence herbicidal damage score, AMARE [2]	Pre-emergence herbicidal damage score, ECHCG [2]	Pre-emergence herbicidal damage score, SETFA [2]	Pre-emergence herbicidal damage score, ZEAMX [2]
179 to 180	CC(C)(C)c1cc(N2C(=O)C(Cl)=C(NC3CC3)C2O)no1 (stereo not shown) [C8]	5	4	5	5	5	4	5	3	5	5	3	2
82 to 95	COC1=C(C)C(O)N(c2cc(C(C)(C)C)on2)C1=O (stereo not shown) [D1, 1-(5-tert-butylisoxazol-3-yl)-2-hydroxy-4-methoxy-3-methyl-2H-pyrrol-5-one]	5	4	5	5	5	4	5	4	5	4	5	2
98 to 100	COC1=C(C)C(O)N(c2noc(C(C)(C)C)c2C#N)C1=O (stereo not shown) [D2, 5-tert-butyl-3-(2-hydroxy-4-methoxy-3-methyl-5-oxo-2H-pyrrol-1-yl)isoxazole-4-carbonitrile]	5	5	5	5	5	4	5	3	5	4	5	3
99 to 101	COC1=C(C)C(O)N(c2noc(C(C)C)c2C#N)C1=O (stereo not shown) [D3]	5	5	5	5	5	4	4	3	5	5	5	2
